Measurements reported in patent publication US20140255432A1, “SILVESTROL, SILVESTROL ANALOGS AND USES THEREOF” (priority 2011, published 2014).

Columns and labels:
Type in all cases: cell-based, human
autologous LCL targets = test: Flow cytometry-based cytotoxicity assay (CFSE/7-AAD), effectors against autologous LCL
Method: Non-radioactive flow cytometry-based cytotoxicity assays have been described previously (Godoy-Ramirez 2005; Helguera 2011). Co-cultures of PBMC and irradiated LCL were grown in the presence or absence of silvestrol for 14 d and collected. Fresh autologous LCL cells were stained with 200 nM carboxyfluorescein diacetate succinimidyl ester (CFSE) (CellTrace™, Invitrogen) for 15 min at 25° C. prior to being mixed with effectors from the irradiated co-cultures at an effector:target (E:T) ratio of 20:1 for 4 hr at 37° C. After the incubation, cells were stained with 7-aminoactinomycin D (7AAD) (BD Biosciences, San Diego, Calif.) and washed. Cytotoxicity was measured by gating on the CFSE-positive events and measuring the 7AAD-positive cells. (See FIGS. 31 and 32). For antibody-dependent cell-mediated cytotoxicity (ADCC) assays the same technique was used; however, the co-cultured effectors were natural killer (NK) cell-enriched and were incubated in the presence or absence of 5 μg/mL rituximab or herceptin (negative control) (Genentech, Inc., South San Francisco, Calif.) for 4 hr at 37° C.
Immune cell function was then analyzed as part of the indirect anti-tumor activity of silvestrol. Cytotoxicity assays were performed. To investigate the effect of silvestrol on adaptive immunity, LCL cells were stained with the cell-tracking dye CFSE, then incubated at an effector to target ratio of 20:1 with autologous PBMC that had been cultured in the presence of irradiated LCL, with or without silvestrol, for 14 days. After a 4 hr incubation, cells were stained with the viability dye 7-AAD and washed. Cytotoxic activity against LCL targets was measured by gating on the CFSE positive events and measuring the 7-AAD positive cells (FIGS. 31-32). […] Data are shown relative to the vehicle-only control and are the averages of three independent experiments. Bars show −/+ standard deviation.
Given that LCL cells were depleted and effector cell cytotoxicity was maintained in non-irradiated co-cultures, whether silvestrol lowers the apoptotic threshold of the LCL tumor target was examined. PBMC were co-cultured with irradiated LCL in the absence of silvestrol for 14 days. These expanded effectors and fresh LCL each were separately incubated with silvestrol or vehicle control for 18 hr and washed. Cells were then combined, and after 4 hr incubation, cytotoxicity assays were performed as above. […] Data are shown relative to the vehicle-only control and are the averages of three independent experiments. Bars show −/+ standard deviation.

[1] = system: EBV-positive lymphoblastoid cell lines (LCL); test: Apoptosis/viability by annexin/PI flow cytometry; details: 2-50 nM; 24, 72, 120 hr; p=0.006 averaged over doses and time points
Method: (§1) Cells from irradiated or non-irradiated co-cultures were co-stained with LIVE/DEAD cell stain (Invitrogen, Grand Island, N.Y.) and hu-CD3-APC and either hu-CD4-PE, hu-CD-8-PE, hu-CD19-PE (BD Biosciences, San Diego, Calif.), or hu-CD56-PE (Beckman Coulter, Brea, Calif.). Live events were gathered by gating on cells negative for the LIVE/DEAD stain on an FC500 cytometer (Beckman Coulter). Cell viability was also measured by flow cytometry at 24, 72, and 120 hr using annexin-V-FITC and propidium iodide (PI) according to the manufacturer's instructions (BD Biosciences).
The direct anti-tumor activity of silvestrol in leukemia and lymphoma models has been document (Hwang 2004; Bordeleau 2008; Cencic 2009; Lucas 2009 Alinari 2011; Saradhi 2011) as well as silvestrol's increased cytotoxicity to malignant B cells compared to normal blood lymphocytes (Lucas 2009). However, activity of silvestrol has not previously been described in spontaneous EBV-transformed cell lines. Silvestrol's activity in fully transformed EBV-positive LCL derived from tumors of SCID mice engrafted with PBMC from EBV-seropositive donors was observed. Six of these EBV-LCL lines were plated in the presence of low concentrations of silvestrol (2-50 nM), and apoptosis (viability assessed by annexin/PI flow cytometry) (FIG. 2A) and proliferation (MTS assay) (FIG. 2B) were evaluated at 24, 72, and 120 hr. […]

[2] = system: immune effector subsets (CD3+/CD4+, CD3+/CD8+, CD3-/CD56+); test: Irradiated LCL / autologous PBMC co-cultures, flow cytometry; details: 14 days
Method: Lymphoblastoid cell lines (LCL) were derived in vivo by engrafting severe combined immune-deficient (SCID) mice (Taconic, Hudson N.Y.) with human peripheral blood mononuclear cells (PBMC) from a healthy EBV-positive donor as described (Rowe 1991; Baiocchi 1994). Co-cultures (Cocx) were created by mixing 5×10^4 LCL (either non-irradiated or irradiated with 14000 rad) per well with equal numbers of autologous PBMC in 96-well plates. Cultures were grown in the presence of 10 U/mL IL-2 and were given a single dose of silvestrol and cultured for 10-14 days.
as §1
To explore the immune modulatory activity of silvestrol in EBV-LPD, in vitro co-cultures (CoCx) were used. These cultures were created by lethally irradiating LCL lines and mixing them at a ratio of 1:1 with PBMC from the same healthy donor from which the LCL was derived. The PBMC are activated and expand in response to the antigenic stimuli from the EBV-infected LCL (Rowe 1991; Baiocchi 1994; Mosier 1995). CoCx created using three LCL and their respective autologous PBMC were incubated in the presence of 10 U/mL IL-2 and treated with 0 (vehicle only), 2, 5, or 10 nM silvestrol for 14 days. Flow cytometric analysis was conducted. Cells were gated on Live events were gathered by gating on cells negative for the LIVE/DEAD stain. Data are expressed as percentage of viable population, relative to the vehicle CoCx condition, for total cells, CD3^+/CD4^+, CD3^+/C8^+, and CD3^−CD56^+ cells. Results shown are the averages from three individual CoCx. […] As the irradiated LCL were absent by this time, silvestrol allowed for expansion of the normal effector population following LCL exposure.

SMILES: COC(=O)[C@H]1[C@@H](O)[C@@]2(O)c3c(OC)cc(O[C@@H]4O[C@@H]([C@H](O)CO)CO[C@H]4OC)cc3O[C@@]2(c2ccc(OC)cc2)[C@@H]1c1ccccc1 [silvestrol]
- direct killing of autologous EBV+ LCLs by EBV-specific CTLs (autologous LCL targets; 10 nM (FIG. 42)): not adversely affected
- cytotoxic activity against autologous LCL maintained, compared to effectors expanded without silvestrol (autologous LCL targets; effectors expanded 14 days with 10 nM, E:T 20:1, 4 hr): over 70%
- ability of silvestrol-treated effectors to kill targets vs. untreated effectors (autologous LCL targets; effectors incubated 18 hr with silvestrol, p=0.287): no decrease
- cytotoxic activity of effector populations against autologous EBV+ tumor cells (autologous LCL targets; expanded 14 days in 2, 5, 10 nM, 3 donors (FIG. 17)): did not affect cytotoxic activity
- killing of LCL target cells pretreated with silvestrol vs. untreated targets (autologous LCL targets; targets pretreated 18 hr, p<0.0001): more efficiently killed
- apoptosis vs. untreated control [1]: Moderate but significant activity
- total number of cells expanded in CoCx ([2]; 10 nM, 10 U/mL IL-2): lower than in the vehicle controls
- CD4+ T helper cell population relative to untreated CoCx ([2]; 2, 5, 10 nM): mild decrease
- CD8+ cytotoxic T cell population relative to untreated CoCx ([2]; 2, 5, 10 nM): mild decrease
- CD56+ natural killer cell population relative to untreated CoCx ([2]; 2, 5, 10 nM): relative increase
